Reference: patent US9585891B2 (MERCK PATENT GMBH, priority 2012, dated 2017)
pIC50: −log10 of the molar value.

Each molecule was assayed against T1, Human recombinant Vanin-1 (VNN1) (Homo sapiens, UniProt O95497) (assay: Vanin-1 enzymatic assay (fluorescence intensity, Pantothenate-AMC substrate)). Conditions: purified recombinant human Vanin-1 0.5 nM; 30 min preincubation at 30° C.; Pantothenate-AMC 30 μM, 60 min.
T1 construct: purchased Sino Biological Inc. 11662-H08H
T1 sequence (O95497 22-491): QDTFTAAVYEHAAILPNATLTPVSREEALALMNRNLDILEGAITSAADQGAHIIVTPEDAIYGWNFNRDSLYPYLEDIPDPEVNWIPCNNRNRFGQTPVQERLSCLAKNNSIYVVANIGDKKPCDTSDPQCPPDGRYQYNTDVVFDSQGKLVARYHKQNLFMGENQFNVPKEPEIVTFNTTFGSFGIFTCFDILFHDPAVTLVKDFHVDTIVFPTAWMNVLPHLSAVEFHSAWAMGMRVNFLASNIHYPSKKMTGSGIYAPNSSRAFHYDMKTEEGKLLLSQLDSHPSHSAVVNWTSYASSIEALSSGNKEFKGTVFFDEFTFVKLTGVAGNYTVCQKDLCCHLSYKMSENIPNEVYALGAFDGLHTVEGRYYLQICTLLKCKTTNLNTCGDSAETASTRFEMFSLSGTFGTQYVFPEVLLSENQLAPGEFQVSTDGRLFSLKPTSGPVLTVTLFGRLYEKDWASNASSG
Type: biochemical
Description: Human recombinant Vanin-1 (VNN1) was purchased from Sino Biological Inc. (Catalog Number: 11662-H08H).
Measurement of VNN1 inhibition is performed in 384-well format based on fluorescence intensity assay. Purified recombinant human Vanin-1 (0.5 nM) and threefold serial diluted compounds in 3% DMSO (range of concentrations from 30 μM to 1.524 nM) or controls (3.0% DMSO) are incubated for 30 minutes at 30° C. with gentle agitation in assay buffer containing 100 mM potassium Phosphate Buffer (KPi), pH 7.5, 0.001% Bovine Serum Albumin (BSA), 0.5 mM dithiothreitol (DTT) and 0.0025% Brij-35. The reaction is initiated by the addition of the fluorogenic substrate, Pantothenate-AMC, at a concentration of 30 μM. After 60 minutes of incubation at 30° C. with gentle agitation, fluorescence intensity is measured at λex=350 nm and λem=450 nm with a fluorescence reader (BMG PHERAstar reader or equivalent).

SMILES	pIC50
CC(=O)CCNC(=O)[C@H](O)C(C)(C)CO [Example 1, (R)-2,4-Dihydroxy-3,3-dimethyl-N-(3-oxo-butyl)-butyramide]	5.27
CCC(=O)CCNC(=O)[C@H](O)C(C)(C)CO [Example 2, (R)-2,4-Dihydroxy-3,3-dimethyl-N-(3-oxo-pentyl)-butyramide]	4.69
CC(C)(CO)[C@@H](O)C(=O)NCCC(=O)C(=O)NCCc1ccccc1 [Example 12, (R)-2,4-Dihydroxy-3,3-dimethyl-N-(3-oxo-3-phenethylcarbamoyl-propyl)-butyramide]	7.05
CC(C)(CO)[C@H](O)C(=O)NCCC(=O)C(=O)NCc1ccccc1 [Example 13, (S)—N-(3-Benzylcarbamoyl-3-oxo-propyl)-2,4-dihydroxy-3,3-dimethyl-butyramide]	6.34
CC(C)(CO)[C@@H](O)C(=O)NCCC(=O)C(=O)Nc1ccccc1 [Example 16, (R)-2,4-Dihydroxy-3,3-dimethyl-N-(3-oxo-3-phenylcarbamoyl-propyl)-butyramide]	5.08
CC(NC(=O)C(=O)CCNC(=O)[C@H](O)C(C)(C)CO)c1ccccc1 (some centres unmarked) [Example 20]	5.52
CC(C)(CO)[C@@H](O)C(=O)NCCC(=O)C(=O)NC(c1ccccc1)c1ccccc1 [Example 21, (R)—N-[3-(Benzhythyl-carbamoyl)-3-oxo-propyl]-2,4-dihydroxy-3,3-dimethyl-butyramide]	4.94
CN(Cc1ccccc1)C(=O)C(=O)CCNC(=O)[C@H](O)C(C)(C)CO [Example 27]	5.01
CC(C)(CO)[C@@H](O)C(=O)NCCC(=O)C(=O)NCCc1ccc(S(C)(=O)=O)cc1 [Example 30, (R)-2,4-Dihydroxy-N-{3-[2-(4-methanesulfonyl-phenyl)-ethylcarbamoyl]-3-oxo-propyl}-3,3-dimethyl-butyramide]	7.52
CC(C)(CO)[C@@H](O)C(=O)NCCC(=O)C(=O)NCCCc1ccc(S(=O)(=O)N2CCCCC2)cc1 [Example 35, (R)-2,4-Dihydroxy-3,3-dimethyl-N-(3-oxo-3-{3-[4-(piperidine-1-sulfonyl)-phenyl]-propylcarbamoyl}-propyl)-butyramide]	7.15
CC(C)(CO)[C@@H](O)C(=O)NCCC(=O)C(=O)NCc1ccc(Oc2ccncc2)cc1 [Example 37, (R)-2,4-Dihydroxy-3,3-dimethyl-N-{3-oxo-3-[4-(pyridin-4-yloxy)-benzylcarbamoyl]-propyl}-butyramide]	8.00
CC(C)(CO)[C@@H](O)C(=O)NCCC(=O)C(=O)NCCOc1ccccc1 [Example 42, (R)-2,4-Dihydroxy-3,3-dimethyl-N-[3-oxo-3-(2-phenoxy-ethylcarbamoyl)-propyl]-butyramide]	6.47
CC(C)(CO)[C@@H](O)C(=O)NCCC(=O)C(=O)N1CCC(Nc2cccc(S(=O)(=O)C(F)(F)F)c2)CC1 [Example 43, (R)—N-{3,4-Dioxo-4-[4-(3-trifluoromethanesulfonyl-phenylamino)-piperidin-1-yl]-butyl}-2,4-dihydroxy-3,3-dimethyl-butyramide]	4.90
CC(C)(CO)[C@@H](O)C(=O)NCCC(=O)C(=O)NCc1ccc(OCCN2CCOCC2)cc1 [Example 44, (R)-2,4-Dihydroxy-3,3-dimethyl-N-(3-[4-(2-morpholin-4-yl-ethoxy)-benzylcarbamoyl]-3-oxo-propyl)-butyramide]	7.30
COCCOc1ccc(CNC(=O)C(=O)CCNC(=O)[C@H](O)C(C)(C)CO)cc1 [Example 50, (R)-2,4-Dihydroxy-N-(3-[4-(2-methoxy-ethoxy)-benzylcarbamoyl]-3-oxo-propyl)-3,3-dimethyl-butyramide]	7.52
CC(C)(CO)[C@@H](O)C(=O)NCCC(=O)C(=O)NCc1ccc(-c2ccc(S(C)(=O)=O)cc2)cc1 [Example 53, (R)-2,4-Dihydroxy-N-{3-[(4′-methanesulfonyl-biphenyl-4-ylmethyl)-carbamoyl]-3-oxo-propyl}-3,3-dimethyl-butyramide]	8.00

More lines, now with the values ahead:

pIC50	SMILES
5.47	CC(C)(CO)[C@@H](O)C(=O)NCCC(=O)C(=O)NC1CCCCC1 [Example 18, (R)—N-(3-Cyclohexylcarbamoyl-3-oxo-propyl)-2,4-dihydroxy-3,3-dimethyl butyramide]
5.63	COC(=O)CNC(=O)C(=O)CCNC(=O)[C@H](O)C(C)(C)CO [Example 25, [4-((R)-2,4-Dihydroxy-3,3-dimethyl-butyrylamino)-2-oxo-butyrylamino]-acetic acid methyl ester]
6.15	CC(C)(CO)[C@@H](O)C(=O)NCCC(=O)C(=O)NCC1CCCO1 (stereo partly drawn) [Example 29, (R)-2,4-Dihydroxy-3,3-dimethyl-N-(3-oxo-3-[(tetrahydro-furan-2-ylmethyl)-carbamoyl]-propyl)-butyramide]
7.70	CC(C)(CO)[C@@H](O)C(=O)NCCC(=O)C(=O)NCC1CCN(S(=O)(=O)c2ccccc2)CC1 [Example 34, (R)—N-(3-[(1-Benzenesulfonyl-piperidin-4-ylmethyl)-carbamoyl]-3-oxo-propyl)-2,4-dihydroxy-3,3-dimethyl-butyramide]
6.77	CC(C)(CO)[C@@H](O)C(=O)NCCC(=O)C(=O)NCc1cccc(S(=O)(=O)N2CCCCC2)c1 [Example 36, (R)-2,4-Dihydroxy-3,3-dimethyl-N-{3-oxo-3-[3-(piperidine-1-sulfonyl)-benzylcarbamoyl}-propyl)-butyramide]
> 8.00	CC(C)(CO)[C@@H](O)C(=O)NCCC(=O)C(=O)NCC1CCN(S(=O)(=O)c2ccc(-c3ccccc3)cc2)CC1 [Example 38, (R)—N-(3-{[1-(Biphenyl-4-sulfonyl)-piperidin-4-ylmethyl]-carbamoyl}-3-oxo-propyl)-2,4-dihydroxy-3,3-dimethyl-butyramide]
6.40	CC(C)(CO)[C@@H](O)C(=O)NCCC(=O)C(=O)NCCCN1CCOCC1=O [Example 40, (R)-2,4-Dihydroxy-3,3-dimethyl-N-{3-oxo-3-[3-(3-oxo-morpholin-4-yl)-propylcarbamoyl}-propyl)butyramide]
8.00	CC(C)(CO)[C@@H](O)C(=O)NCCC(=O)C(=O)NCc1ccc(N2CCOCC2)cc1 [Example 41, (R)-2,4-Dihydroxy-3,3-dimethyl-N-[3-(4-morpholin-4-yl-benzylcarbamoyl)-3-oxo-propyl]-butyramide]
7.70	CCOC(=O)c1ccc(CNC(=O)C(=O)CCNC(=O)[C@H](O)C(C)(C)CO)cc1 [Example 45, 4-{[4-((R)-2,4-Dihydroxy-3,3-dimethyl-butyrylamino)-2-oxo-butyrylamino]-methyl}-benzoic acid ethyl ester]
> 8.00	CC(C)(CO)[C@@H](O)C(=O)NCCC(=O)C(=O)NCC1CCN(S(=O)(=O)c2ccc(N3CCCC3=O)cc2)CC1 [Example 46, (R)-2,4-Dihydroxy-3,3-dimethyl-N-[3-oxo-3-({1-[4-(2-oxo-pyrrolidin-1-yl)-benzenesulfonyl]-piperidin-4-ylmethyl}-carbamoyl)-propyl]-butyramide]
7.70	CC(C)(CO)[C@@H](O)C(=O)NCCC(=O)C(=O)NCC1CCN(S(C)(=O)=O)CC1 [Example 47, (R)-2,4-Dihydroxy-N-(3-[(1-methanesulfonyl-piperidin-4-ylmethyl)-carbamoyl]-3-oxo-propyl)-3,3-dimethyl-butyramide]
6.96	CC(=O)N1CCC(CNC(=O)C(=O)CCNC(=O)[C@H](O)C(C)(C)CO)CC1 [Example 48, (R)—N-(3-[(1-Acetyl-piperidin-4-ylmethyl)-carbamoyl]-3-oxo-propyl)-2,4-dihydroxy-3,3-dimethyl-butyramide]
4.64	CC(C)(CO)[C@@H](O)C(=O)NCCC(=O)C(=O)N1CCOCC1 [Example 49, (R)-2,4-Dihydroxy-3,3-dimethyl-N-(4-morpholin-4-yl-3,4-dioxo-butyl)-butyramide]
7.70	CC(C)(CO)[C@@H](O)C(=O)NCCC(=O)C(=O)NCC1CCN(S(=O)(=O)c2cccc(F)c2)CC1 [Example 51, (R)—N-(3-{[1-(3-Fluoro-benzenesulfonyl)-piperidin-4-ylmethyl]-carbamoyl}-3-oxo-propyl)-2,4-dihydroxy-3,3-dimethyl-butyramide]
7.30	CC(C)(CO)[C@@H](O)C(=O)NCCC(=O)C(=O)NCC1CCN(S(=O)(=O)Cc2cccc(F)c2)CC1 [Example 52, (R)—N-(3-{[1-(3-Fluoro-phenylmethanesulfonyl)-piperidin-4-ylmethyl]-carbamoyl}-3-oxo-propyl)-2,4-dihydroxy-3,3-dimethyl-butyramide]
7.05	CC(C)(CO)[C@@H](O)C(=O)NCCC(=O)C(=O)NCc1ccc(C(=O)O)cc1 [Example 54, 4-{[4-((R)-2,4-Dihydroxy-3,3-dimethyl-butrylamino)-2-oxo-butyrylamino]-methyl}-benzoic acid]
